According to patent publication US11071731B2, “Allosteric modulators of the mu opioid receptor” (Chiromics, LLC, priority 2017, dated 2021):

Assays:
mu opioid receptor (MOR) [1] = target: T1, mu opioid receptor (MOR) (Homo sapiens, UniProt P35372); assay: PathHunter β-arrestin recruitment assay, PAM mode with EC20 endomorphin-1; assay type: cell-based
Description: The effects of MOR PAMs and MOR SAMs on receptor activity were assayed using the PathHunter enzyme complementation assay technology (DiscoveRx, CA). A description of the technology employed is as follows.
Beta-Arrestin Pathway: The PathHunter β-arrestin assay monitors the activation of a GPCR in a homogenous, non-imaging assay format using a technology developed by DiscoveRx called Enzyme Fragment Complementation (EFC) with beta-galactosidase (β-Gal) as the functional reporter. […] EA is fused to β-Arrestin and ED is fused to the GPCR of interest. When the GPCR is activated and β-arrestin is recruited to the receptor, ED and EA complementation occurs, restoring β-gal activity, which is measured using chemiluminescent PathHunter Detection Reagents.
In this manner an EC50 for each test compound, and percent maximal response for each test compound, were determined for both the β-arrestin and cAMP pathways. Though the pharmacological effects of a given signal bias can be hypothesized (Raehal et al. (2011) Pharmacol. Rev. 63:1001-1019), it is not possible to know with certainty which bias ratio will be most advantageous in a clinical setting. […] Kenakin 2015a, supra. The information associated with the compounds detailed herein is the first large data set available for the prediction of ligand bias for an MOR PAM.

mu opioid receptor (MOR) [2] = target: T1, mu opioid receptor (MOR); assay: Hit Hunter cAMP signaling assay (adenylyl cyclase inhibition), PAM mode with EC20 endomorphin-1; assay type: cell-based
[3] = maximal response for β-arrestin recruitment
[4] = β-arrestin recruitment, read-out: β-arr. EC50
[5] = cAMP EC50, adenylyl cyclase inhibition
[6] = maximal response for adenylyl cyclase inhibition
[7] = adenylyl cyclase inhibition, read-out: cAMP EC50
[8] = maximal response, β-arrestin recruitment
[9] = maximal response, adenylyl cyclase inhibition

T1 sequence (P35372 whole entry): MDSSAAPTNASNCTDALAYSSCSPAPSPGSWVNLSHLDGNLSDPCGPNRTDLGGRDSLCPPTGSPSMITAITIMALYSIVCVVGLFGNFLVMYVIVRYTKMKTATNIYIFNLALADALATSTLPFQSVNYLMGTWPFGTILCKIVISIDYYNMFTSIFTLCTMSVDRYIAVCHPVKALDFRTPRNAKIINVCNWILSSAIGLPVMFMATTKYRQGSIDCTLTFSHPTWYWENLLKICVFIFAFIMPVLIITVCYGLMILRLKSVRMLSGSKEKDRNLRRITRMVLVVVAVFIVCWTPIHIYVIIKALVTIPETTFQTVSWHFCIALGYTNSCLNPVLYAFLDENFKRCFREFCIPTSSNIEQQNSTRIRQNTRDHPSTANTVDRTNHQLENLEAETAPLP

| SMILES | β-arr Max. Resp. (mu opioid receptor (MOR) [1]; [3]) | EC50 (mu opioid receptor (MOR) [1]; [4]) [nM] | EC50 (mu opioid receptor (MOR) [2]; [5]) [nM] | cAMP Max. Resp. (mu opioid receptor (MOR) [2]; [6]) | EC50 (mu opioid receptor (MOR) [2]; [7]) [nM] | β-arr Max. Resp. (mu opioid receptor (MOR) [1]; [8]) | cAMP Max. Resp. (mu opioid receptor (MOR) [2]; [9]) | β-arrestin Max Response (mu opioid receptor (MOR) [1]; β-arrestin recruitment, activity switching by MOR PAMs) | EC50 (mu opioid receptor (MOR) [1]; β-arrestin recruitment, activity switching by MOR PAMs, read-out: β-arrestin EC50) [nM] | cAMP Max Resp. (mu opioid receptor (MOR) [2]; adenylyl cyclase inhibition, activity switching by MOR PAMs) | EC50 (mu opioid receptor (MOR) [2]; adenylyl cyclase inhibition, activity switching by MOR PAMs, read-out: cAMP EC50) [nM] |
| --- | --- | --- | --- | --- | --- | --- | --- | --- | --- | --- | --- |
| Cn1cnc2cc(C(F)(F)F)cc(C3CCCCN3c3nc(Cl)ncc3F)c21 (stereo not shown) [compound 300] | E (E represents a maximal response of 40-60%) | > 2100 | > 2100 | F (F represents a maximal response of > 60%) | – | – | – | – | – | – | – |
| Fc1ccc(C(F)(F)F)cc1C1CCCCN1c1nc(Cl)ncc1F (stereo not shown) [compound 353] | D (D represents a maximal response of < 40%) | < 700 | < 700 | D (D represents a maximal response of < 40%) | – | – | – | – | – | – | – |
| OC1CCN(c2nc(Cl)ncc2F)C(c2ccc(F)c(Br)c2)C1 (stereo not shown) [compound 241] | F (F represents a maximal response of > 60%) | > 2100 | > 2100 | E (E represents a maximal response of 40-60%) | – | – | – | – | – | – | – |
| Fc1cnc(Cl)nc1N1CCCCC1c1ccc(C(F)(F)F)nc1 (stereo not shown) [compound 413] | D (D represents a maximal response of < 40%) | < 700 | < 700 | D (D represents a maximal response of < 40%) | – | – | – | – | – | – | – |
| Fc1cc(C2CCCCN2Cc2cc(Cl)ccc2F)cc(C(F)(F)F)c1 (stereo not shown) [compound 167] | F (F represents a maximal response of > 60%) | < 700 | 700 to 2100 | F (F represents a maximal response of > 60%) | – | – | – | – | – | – | – |
| O=S(=O)(c1ccc(Cl)cc1)N1CCCCC1c1ccc(F)cc1 (racemic) [compound 78] | F (F represents a maximal response of > 60%) | 700 to 2100 | – | E (E represents a maximal response of 40-60%) | < 700 | – | – | – | – | – | – |
| Fc1cnc(Cl)nc1N1CCC(F)(F)CC1c1cccc(C(F)(F)F)c1 (stereo not shown) [compound 199] | F (F represents a maximal response of > 60%) | < 700 | 700 to 2100 | E (E represents a maximal response of 40-60%) | – | – | – | – | – | – | – |
| OC1CCN(c2nc(Cl)ncc2F)C(c2cc(F)cc(C(F)(F)F)c2)C1 (stereo not shown) [compound 201] | F (F represents a maximal response of > 60%) | > 2100 | > 2100 | F (F represents a maximal response of > 60%) | – | – | – | – | – | – | – |
| Fc1ccc(C2CCCCN2c2nc(Cl)ncc2F)cc1Cl (single isomer, unassigned) [compound 11] | F (F represents a maximal response of > 60%) | < 700 | – | E (E represents a maximal response of 40-60%) | – | – | – | – | – | – | – |
| O=S(=O)(c1ccc(Cl)cc1F)N1CCCC(F)C1c1ccc(F)c(Br)c1 (stereo not shown) [Compound 37] | – | > 2100 | – | – | > 2100 | – | – | – | – | – | – |
| FC(F)(F)c1cccc(C2CCCCN2Cc2cc(Cl)ccc2Cl)n1 (stereo not shown) [compound 176] | F (F represents a maximal response of > 60%) | 700 to 2100 | 700 to 2100 | F (F represents a maximal response of > 60%) | – | – | – | – | – | – | – |
| COc1ccc(C2CCCCN2S(=O)(=O)c2ccc(Cl)cc2)cc1Br (single isomer, unassigned) [compound 5] | D (D represents a maximal response of < 40%) | > 2100 | > 2100 | D (D represents a maximal response of < 40%) | – | – | – | – | – | – | – |
| Fc1ccc(C2CCCCN2c2ccc(C(F)(F)F)cc2)cc1Cl (stereo not shown) [compound 453] | – | > 2100 | > 2100 | – | – | D (D represents a maximal response of < 40%) | D (D represents a maximal response of < 40%) | – | – | – | – |
| COc1cccc(N2CCCCC2c2ccc(F)c(Cl)c2)c1 (stereo not shown) [compound 465] | – | > 2100 | > 2100 | – | – | E (E represents a maximal response of 40-60%) | D (D represents a maximal response of < 40%) | – | – | – | – |
| COc1ccc(C2CCCCN2c2cncc(C(F)(F)F)n2)cc1Br (stereo not shown) [compound 230] | F (F represents a maximal response of > 60%) | > 2100 | > 2100 | F (F represents a maximal response of > 60%) | – | – | – | – | – | – | – |
| Fc1ccc(C2COCCN2Cc2cc(Cl)ccc2F)cc1Cl (racemic) [Compound 194] | F (F represents a maximal response of > 60%) | 700 to 2100 | – | D (D represents a maximal response of < 40%) | 700 to 2100 | – | – | – | – | – | – |
| Fc1cnc(Cl)nc1N1CCCCC1c1ccc2cncn2c1 (stereo not shown) [compound 334] | D (D represents a maximal response of < 40%) | < 700 | < 700 | D (D represents a maximal response of < 40%) | – | – | – | – | – | – | – |
| Fc1cc(C2CC(F)CCN2c2nc(Cl)ncc2F)cc(C(F)(F)F)c1 (stereo not shown) [compound 196] | F (F represents a maximal response of > 60%) | < 700 | < 700 | F (F represents a maximal response of > 60%) | – | – | – | – | – | – | – |
| Fc1cnc(Cl)nc1N1CCCCC1c1cnc2ccccn12 (stereo not shown) [compound 336] | D (D represents a maximal response of < 40%) | < 700 | < 700 | D (D represents a maximal response of < 40%) | – | – | – | – | – | – | – |
| O=C1CCN(c2nc(Cl)ncc2F)C(c2cccc(C(F)(F)F)c2)C1 (stereo not shown) [compound 239] | E (E represents a maximal response of 40-60%) | > 2100 | > 2100 | D (D represents a maximal response of < 40%) | – | – | – | – | – | – | – |
| Fc1cc(C2CCCCN2Cc2cccc(Cl)c2)cc(C(F)(F)F)c1 (stereo not shown) [compound 157] | F (F represents a maximal response of > 60%) | > 2100 | > 2100 | E (E represents a maximal response of 40-60%) | – | – | – | – | – | – | – |
| CC1CCN(S(=O)(=O)c2ccc(Cl)cc2)C1c1ccc(Cl)c(C(F)(F)F)c1 (mixture of isomers) [Compound 87] | F (F represents a maximal response of > 60%) | > 2100 | – | D (D represents a maximal response of < 40%) | > 2100 | – | – | – | – | – | – |
| Fc1c(C2CCCCN2c2ccnc(Cl)n2)cccc1C(F)(F)F (stereo not shown) [compound 365] | D (D represents a maximal response of < 40%) | < 700 | < 700 | D (D represents a maximal response of < 40%) | – | – | – | – | – | – | – |
| Fc1c(Cl)cccc1CN1CCCCC1c1cccc(C(F)(F)F)n1 (stereo not shown) [compound 172] | F (F represents a maximal response of > 60%) | 700 to 2100 | < 700 | E (E represents a maximal response of 40-60%) | – | – | – | – | – | – | – |
| Fc1cc(C2COCCN2c2nc(Cl)ncc2F)cc(C(F)(F)F)c1 (single isomer, unassigned) [Compound 344] | D (D represents a maximal response of < 40%) | < 700 | – | D (D represents a maximal response of < 40%) | < 700 | – | – | – | – | – | – |
| Fc1cnc(Cl)nc1N1CCCCC1c1cc(C(F)(F)F)c2[nH]ncc2c1 (stereo not shown) [compound 352] | D (D represents a maximal response of < 40%) | < 700 | < 700 | D (D represents a maximal response of < 40%) | – | – | – | – | – | – | – |
| O=S(=O)(c1ccc(Cl)cc1)N1CCCCC1c1cc(C(F)(F)F)ccn1 (racemic) [compound 79] | F (F represents a maximal response of > 60%) | > 2100 | – | D (D represents a maximal response of < 40%) | > 2100 | – | – | F (F represents a maximal response of >60%) | > 2100 | D (D represents a maximal response of < 40%) | > 2100 |
